Test results from patent publication US11987795B2, “Methods of modulating SLC7A11 pre-mRNA transcripts for diseases and conditions associated with expression of SLC7A11” (The Broad Institute, Inc., priority 2020, dated 2024).
Where two headings read alike, the source gives them in different places.

What was measured:
mdx mice = test: Wire hang test in mdx mice; assay type: in vivo; details: dantrolene 10 mg/kg/day with oligo AON23 10 mg/kg/week versus AON23 10 mg/kg/week alone, p=0.022
[1] = humans, long term administration; cited from earlier work
PFKM = biological target: T1, PFKM (Homo sapiens, UniProt P08237); details: PFKM / PFK inhibition, cited from earlier work
T1 sequence (P08237 2-780 limits assumed): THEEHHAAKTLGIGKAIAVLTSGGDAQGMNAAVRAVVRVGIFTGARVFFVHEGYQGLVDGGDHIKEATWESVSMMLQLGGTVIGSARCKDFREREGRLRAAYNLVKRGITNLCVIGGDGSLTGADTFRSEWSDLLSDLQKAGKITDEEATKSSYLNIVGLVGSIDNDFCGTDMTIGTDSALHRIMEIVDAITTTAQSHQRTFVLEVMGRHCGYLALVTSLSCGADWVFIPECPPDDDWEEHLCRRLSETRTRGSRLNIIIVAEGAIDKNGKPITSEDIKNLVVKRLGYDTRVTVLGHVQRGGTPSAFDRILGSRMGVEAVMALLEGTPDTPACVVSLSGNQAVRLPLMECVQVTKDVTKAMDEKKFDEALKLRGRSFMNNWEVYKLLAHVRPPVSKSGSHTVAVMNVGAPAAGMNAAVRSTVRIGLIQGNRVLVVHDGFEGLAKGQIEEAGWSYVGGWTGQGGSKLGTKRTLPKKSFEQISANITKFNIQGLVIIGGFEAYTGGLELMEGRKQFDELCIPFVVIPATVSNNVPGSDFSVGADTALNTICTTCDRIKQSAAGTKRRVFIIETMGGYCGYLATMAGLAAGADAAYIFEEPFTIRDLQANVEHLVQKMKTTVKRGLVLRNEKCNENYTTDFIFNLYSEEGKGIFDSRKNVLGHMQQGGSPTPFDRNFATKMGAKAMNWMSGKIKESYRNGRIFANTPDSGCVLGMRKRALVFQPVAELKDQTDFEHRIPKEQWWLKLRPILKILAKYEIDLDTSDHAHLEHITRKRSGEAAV

[2] = biological target: T2, cystine/glutamate antiporter SLC7A11 (xCT) (Homo sapiens, UniProt Q9UPY5); test: Glutamate secretion with sulfasalazine inhibition of the transporter; assay type: cell-based; details: K562 cells; FIG. S7A-E
T2 construct: endogenous in cells; host or cells: K562 (probable)
T2 sequence (Q9UPY5 1-501): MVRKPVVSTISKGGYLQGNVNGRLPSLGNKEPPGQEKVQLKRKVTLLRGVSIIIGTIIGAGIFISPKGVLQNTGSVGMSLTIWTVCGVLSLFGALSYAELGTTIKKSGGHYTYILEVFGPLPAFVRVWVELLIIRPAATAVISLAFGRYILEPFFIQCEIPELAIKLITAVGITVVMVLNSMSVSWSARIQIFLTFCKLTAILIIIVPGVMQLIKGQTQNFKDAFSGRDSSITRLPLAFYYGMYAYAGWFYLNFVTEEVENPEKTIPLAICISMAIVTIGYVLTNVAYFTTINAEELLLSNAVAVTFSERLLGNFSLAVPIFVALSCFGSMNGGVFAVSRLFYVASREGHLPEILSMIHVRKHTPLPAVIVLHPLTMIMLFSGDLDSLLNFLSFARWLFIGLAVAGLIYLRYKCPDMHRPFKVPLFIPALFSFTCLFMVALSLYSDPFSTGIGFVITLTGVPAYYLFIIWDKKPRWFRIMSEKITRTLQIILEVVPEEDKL
T2 sequence (P08195 1-529 partner): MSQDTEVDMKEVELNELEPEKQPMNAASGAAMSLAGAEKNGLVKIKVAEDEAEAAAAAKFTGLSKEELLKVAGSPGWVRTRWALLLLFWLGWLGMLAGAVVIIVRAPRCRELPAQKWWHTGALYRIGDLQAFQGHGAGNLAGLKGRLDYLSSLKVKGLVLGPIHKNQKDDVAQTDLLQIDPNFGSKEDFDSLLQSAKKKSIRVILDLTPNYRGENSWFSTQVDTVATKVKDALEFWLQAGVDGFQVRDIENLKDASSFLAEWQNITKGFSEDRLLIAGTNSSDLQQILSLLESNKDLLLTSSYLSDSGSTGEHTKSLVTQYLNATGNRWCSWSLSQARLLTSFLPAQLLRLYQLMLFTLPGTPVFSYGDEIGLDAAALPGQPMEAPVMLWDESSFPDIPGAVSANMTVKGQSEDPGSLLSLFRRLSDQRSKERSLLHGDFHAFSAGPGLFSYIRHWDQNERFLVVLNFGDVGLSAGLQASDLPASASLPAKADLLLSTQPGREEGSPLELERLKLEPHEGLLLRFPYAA
Protocol: Glutamate levels were determined using a commercially available AMPLEX kit (Life Technologies). LUC7L2WT, LUC7L2Rescue (LUC7L2KO cells were a LUC7L2 cDNA was stably expressed), LUC7L2KO and ASO treated K562 or HAP1 cells were grown for 24 h in fresh culture media and counted. Cells were then washed with PBS, the media was replaced and the cells were incubated for another 3 h. Medias were then collected and centrifuged at 2,000 g for 3 min, and glutamate concentrations were determined from the supernatant.

K562 cells = test: Maximal respiration with sulfasalazine inhibition of the transporter; assay type: cell-based, human; details: FIG. S7A-E
Protocol: 1.25×10^5 K562 cells were plated on a Seahorse plate in Seahorse XF DMEM media (Agilent) containing 25 mM glucose and 4 mM glutamine (ThermoFisher Scientific). Oxygen consumption and extracellular acidification rates were simultaneously recorded by a Seahorse XFe96 Analyzer (Agilent) using the mito stress test protocol, in which cells were sequentially perturbed by […] oligomycin, 1 μM CCCP and […] antimycin (Sigma). Data were analyzed using the Seahorse Wave Desktop Software (Agilent). Data were not corrected for carbonic acid derived from respiratory CO2. For seahorse in HeLa and HAP1 cells, 5×104 and 1×10^5 cells were plated in a 96-well seahorse plate the day before the experiment (respectively). Cells were trypsinized after the experiment and recounted and the data was normalized to cell number.

Molecule: O=C1CN(/N=C/c2ccc(-c3ccc([N+](=O)[O-])cc3)o2)C(O)=N1 [Dantrolene]
- functional benefit in wire hang test (mdx mice): functional benefit
- dose shown to be safe [1]: up to 8 mg/kg/day

Molecule: tryptolinamide [tryptonilamide]
- shift of energy metabolism from glycolysis to OXPHOS (PFKM): glycolysis to OXPHOS shift
- shift of energy metabolism from glycolysis to OXPHOS (PFKM; listed as tryptolinamide): strong effect

Molecule: O=C(O)c1cc(/N=N/c2ccc(S(=O)(=O)Nc3ccccn3)cc2)ccc1O [sulfasalazine (SAS), sulfasalazine]
- glutamate secretion [2]: prevented glutamate secretion
- maximal respiration (K562 cells): promoted maximal respiration
